The record followed here is patent US10968225B2, “Compounds and compositions for the treatment of cystic fibrosis” (Fondazione Istituto Italiano Di Tecnologia, priority 2017, dated 2021).

A value given as a limit tells only on which side of the number the result lay.

The term EC50 denotes the concentration needed to bring the measured effect to its halfway point.

For the assay, the target named is T1, mutant CFTR (Homo sapiens, UniProt P13569, DEL508-508).
T1 construct: expressed in transfected cells
T1 sequence (P13569 with tags, fused parts or gaps DEL508-508): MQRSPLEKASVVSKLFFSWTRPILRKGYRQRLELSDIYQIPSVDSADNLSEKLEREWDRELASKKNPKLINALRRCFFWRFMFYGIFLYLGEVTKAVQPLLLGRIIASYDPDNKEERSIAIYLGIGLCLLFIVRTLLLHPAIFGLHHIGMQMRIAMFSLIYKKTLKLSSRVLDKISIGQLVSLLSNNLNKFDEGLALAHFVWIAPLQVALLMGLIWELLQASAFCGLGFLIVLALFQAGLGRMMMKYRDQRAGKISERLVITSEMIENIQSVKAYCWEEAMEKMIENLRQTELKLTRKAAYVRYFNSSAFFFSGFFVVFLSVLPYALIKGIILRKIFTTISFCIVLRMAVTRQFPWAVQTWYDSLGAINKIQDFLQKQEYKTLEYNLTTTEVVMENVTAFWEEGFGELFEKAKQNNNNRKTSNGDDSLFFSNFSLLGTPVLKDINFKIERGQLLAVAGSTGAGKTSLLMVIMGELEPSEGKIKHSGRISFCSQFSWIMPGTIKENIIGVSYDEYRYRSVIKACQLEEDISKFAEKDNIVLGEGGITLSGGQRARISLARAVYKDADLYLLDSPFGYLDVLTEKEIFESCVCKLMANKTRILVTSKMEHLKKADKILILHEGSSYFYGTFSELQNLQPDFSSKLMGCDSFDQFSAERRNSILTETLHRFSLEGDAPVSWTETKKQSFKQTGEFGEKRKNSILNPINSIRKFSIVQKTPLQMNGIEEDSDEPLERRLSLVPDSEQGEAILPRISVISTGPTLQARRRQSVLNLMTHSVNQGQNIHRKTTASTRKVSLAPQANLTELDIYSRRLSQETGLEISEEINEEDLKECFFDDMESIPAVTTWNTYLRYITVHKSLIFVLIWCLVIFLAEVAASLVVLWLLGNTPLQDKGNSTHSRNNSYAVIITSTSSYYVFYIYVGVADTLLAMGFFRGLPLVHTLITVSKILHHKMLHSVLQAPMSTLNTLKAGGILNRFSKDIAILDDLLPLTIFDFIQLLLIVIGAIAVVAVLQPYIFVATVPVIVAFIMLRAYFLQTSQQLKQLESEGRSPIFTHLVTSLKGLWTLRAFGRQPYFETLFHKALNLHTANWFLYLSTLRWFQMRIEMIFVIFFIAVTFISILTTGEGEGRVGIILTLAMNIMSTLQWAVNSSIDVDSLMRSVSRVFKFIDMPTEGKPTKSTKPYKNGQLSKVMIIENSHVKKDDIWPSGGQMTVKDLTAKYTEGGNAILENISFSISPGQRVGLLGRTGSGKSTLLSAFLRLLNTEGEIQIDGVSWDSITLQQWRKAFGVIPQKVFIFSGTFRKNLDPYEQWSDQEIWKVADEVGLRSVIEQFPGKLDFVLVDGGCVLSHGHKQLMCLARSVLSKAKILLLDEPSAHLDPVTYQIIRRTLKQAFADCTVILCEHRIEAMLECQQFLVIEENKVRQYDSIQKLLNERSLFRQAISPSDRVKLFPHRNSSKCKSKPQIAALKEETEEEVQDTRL
Nature of the assay: Fluorescence (HS-YFP) assay for CFTR activity, corrector assay. Conditions: CFBE41o- and FRT cells with stable expression of mutant CFTR, read-out: activity (EC50). The class given is cell-based.
Consider `Cc1nc2ccc(N(C)C(=O)c3cccc(-n4nc(C(F)(F)F)c5c4C(Oc4ncc(C(=O)O)cn4)COC5)c3)cc2o1` (racemic) [Compound 297], for which the EC50 was under 1000 nM.
`CN(C(=O)c1cccc(-n2nc(C(F)(F)F)c3c2C(Oc2ncc(C(=O)O)cn2)COC3)c1)c1cnc2c(c1)OCC2` (racemic) [Compound 300, 2-[[1-[3-[2,3-Dihydrofuro[3,2-b]pyridin-6-yl(methyl)carbamoyl]phenyl]-3-(trifluoromethyl)-6,7-dihydro-4H-pyrano[4,3-c]pyrazol-7-yl]oxy]pyrimidine-5-carboxylic acid]: the EC50 was under 1000 nM.
On to `CN(C(=O)c1cccc(-n2nc(C(F)(F)F)c3c2C(n2cc(C(=O)O)ccc2=O)COC3)c1)c1ccc2c(c1)OC(F)(F)O2` (racemic) [Compound 301, (rac)-6-oxo-1-[1-[3-[(2,2-difluoro-1,3-benzodioxol-5-yl)-methyl-carbamoyl]phenyl]-3-(trifluoromethyl)-6,7-dihydro-4H-pyrano[4,3-c]pyrazol-7-yl]pyridine-3-carboxylic acid], for which the EC50 fell in the range of 1000 to 2000 nM.
With `CN(C(=O)c1cccc(-n2nc(C(F)(F)F)c3c2C(Oc2ccc(C(=O)O)nn2)CCC3)c1)c1ccc2c(c1)OC(F)(F)O2` (racemic) [Compound 302, 6-[[1-[3-[(2,2-Difluoro-1,3-benzodioxol-5-yl)-methyl-carbamoyl]phenyl]-3-(trifluoromethyl)-4,5,6,7-tetrahydroindazol-7-yl]oxy]pyridazine-3-carboxylic acid], the EC50 was over 2000 nM.
`CN(C(=O)c1cccc(-n2nc(C(F)(F)F)c3c2C(Oc2ccc(C(=O)O)cc2)CCC3)c1)c1ccc2c(c1)S(=O)(=O)CC2` (racemic) [Compound 303, 4-[[1-[3-[(1,1-Dioxo-2,3-dihydrobenzothiophen-6-yl)-methyl-carbamoyl]phenyl]-3-(trifluoromethyl)-4,5,6,7-tetrahydroindazol-7-yl]oxy]benzoic acid]: the EC50 was over 2000 nM.
On to `CN(C(=O)c1cccc(-n2nc(C(F)(F)F)c3c2C(Oc2ncc(C(=O)O)cn2)COC3)c1)c1cnc2c(c1)CCC2` (racemic) [Compound 305, (rac)-2-[[1-[3-[6,7-dihydro-5H-cyclopenta[b]pyridin-3-yl(methyl)carbamoyl]phenyl]-3-(trifluoro-methyl)-6,7-dihydro-4H-pyrano[4,3-c]pyrazol-7-yl]oxy]pyrimidine-5-carboxylic acid], for which the EC50 was under 1000 nM.
Consider `COc1ncc(N(C)C(=O)c2cccc(-n3nc(C(F)(F)F)c4c3C(Oc3ccc(C(=O)O)cc3)COC4)c2)cn1` (racemic) [Compound 306, 4-[[1-[3-[(2-Methoxypyrimidin-5-yl)-methyl-carbamoyl]phenyl]-3-(trifluoromethyl)-6,7-dihydro-4H-pyrano[4,3-c]pyrazol-7-yl]oxy]benzoic acid], for which the EC50 lay within 1000 to 2000 nM.
The same measure for `CN(C(=O)c1cccc(-n2nc(C(F)(F)F)c3c2C(Oc2ccc(C(=O)O)cc2)CCC3)c1)c1cncc(F)c1` (racemic) [Compound 307, (rac)-4-[[1-[3-[(5-fluoro-3-pyridyl)methyl-carbamoyl]phenyl]-3-(trifluoromethyl)-4,5,6,7-tetrahydroindazol-7-yl]oxy]benzoic acid]: over 2000 nM.
Next, `COc1cc(N(C)C(=O)c2cccc(-n3nc(C(F)(F)F)c4c3C(Oc3ccc(C(=O)O)cc3)CCC4)c2)ccc1F` (racemic) [Compound 308, 4-[[1-[3-[(4-Fluoro-3-methoxy-phenyl)-methyl-carbamoyl]phenyl]-3-(trifluoromethyl)-4,5,6,7-tetrahydroindazol-7-yl]oxy]benzoic acid]: over 2000 nM.
For the compound `CN(C(=O)c1cccc(-n2nc(C(F)(F)F)c3c2C(Oc2ccc(C(=O)O)cc2)CCC3)c1)c1cncc(Cl)c1` (racemic) [Compound 309, 4-[[1-[3-[(5-chloro-3-pyridyl)-methyl-carbamoyl]phenyl]-3-(trifluoromethyl)-4,5,6,7-tetrahydroindazol-7-yl]oxy]benzoic acid], the EC50 is over 2000 nM.
In the case of `CN(C(=O)c1cccc(-n2nc(C(F)(F)F)c3c2C(Oc2ccc(C(=O)O)cc2)CCC3)c1)c1cncc(C#N)c1` (racemic) [Compound 310, 4-[[1-[3-[(5-Cyano-3-pyridyl)-methyl-carbamoyl]phenyl]-3-(trifluoromethyl)-4,5,6,7-tetrahydroindazol-7-yl]oxy]benzoic acid], the EC50 lay within 1000 to 2000 nM.
Next, `COc1ccc(N(C)C(=O)c2cccc(-n3nc(C(F)(F)F)c4c3C(Oc3ccc(C(=O)O)cc3)CCC4)c2)cc1OC` (racemic) [Compound 311, 4-[[1-[3-[(3,4-Dimethoxyphenyl)-methyl-carbamoyl]phenyl]-3-(trifluoromethyl)-4,5,6,7-tetrahydroindazol-7-yl]oxy]benzoic acid]: over 2000 nM; `CC(C)Oc1cncc(N(C)C(=O)c2cccc(-n3nc(C(F)(F)F)c4c3C(Oc3ccc(C(=O)O)cc3)CCC4)c2)c1` (racemic) [Compound 312, 4-[[1-[3-[(5-Isopropoxy-3-pyridyl)-methyl-carbamoyl]phenyl]-3-(trifluoromethyl)-4,5,6,7-tetrahydroindazol-7-yl]oxy]benzoic acid]: 1000 to 2000 nM.
On to `CN(C(=O)c1cccc(-n2nc(C(F)(F)F)c3c2C(Oc2ccc(C(=O)O)cc2)CCC3)c1)c1cnc(OC2CC2)nc1` (racemic) [Compound 313, 4-[[1-[3-[[2-(Cyclopropoxy)pyrimidin-5-yl]-methyl-carbamoyl]phenyl]-3-(trifluoromethyl)-4,5,6,7-tetrahydroindazol-7-yl]oxy]benzoic acid], for which the EC50 lay within 1000 to 2000 nM.
Turning to `CN(C(=O)c1cccc(-n2nc(C(F)(F)F)c3c2C(Oc2ccc(C(=O)O)cc2)CCC3)c1)c1ccc(OC(F)F)nc1` (racemic) [Compound 314, 4-[[1-[3-[[6-(Difluoromethoxy)-3-pyridyl]-methyl-carbamoyl]phenyl]-3-(trifluoromethyl)-4,5,6,7-tetrahydroindazol-7-yl]oxy]benzoic acid], the half-maximal effective concentration (EC50) was under 1000 nM.
Next, `CN(C(=O)c1cccc(-n2nc(C(F)(F)F)c3c2C(Oc2ccc(C(=O)O)cc2)CCC3)c1)c1ccnc(C(F)(F)F)c1` (racemic) [Compound 315, 4-[[1-[3-[Methyl-[2-(trifluoromethyl)-4-pyridyl]carbamoyl]phenyl]-3-(trifluoromethyl)-4,5,6,7-tetrahydroindazol-7-yl]oxy]benzoic acid]: 1000 to 2000 nM.
Next, `COc1cc(N(C)C(=O)c2cccc(-n3nc(C(F)(F)F)c4c3C(Oc3ccc(C(=O)O)cc3)CCC4)c2)ccn1` (racemic) [Compound 316, 4-[[1-[3-[(2-methoxy-4-pyridyl)-methyl-carbamoyl]phenyl]-3-(trifluoromethyl)-4,5,6,7-tetrahydroindazol-7-yl]oxy]benzoic acid]: 1000 to 2000 nM; `CC(C)Oc1cc(N(C)C(=O)c2cccc(-n3nc(C(F)(F)F)c4c3C(Oc3ccc(C(=O)O)cc3)CCC4)c2)ccn1` (racemic) [Compound 317, 4-[[1-[3-[(2-Isopropoxy-4-pyridyl)-methyl-carbamoyl]phenyl]-3-(trifluoromethyl)-4,5,6,7-tetrahydroindazol-7-yl]oxy]benzoic acid]: 1000 to 2000 nM.
